For two molecules, Activity results are on record in ChEMBL document CHEMBL1146444, “RKS-1778, a new mammalian cell-cycle inhibitor and a key intermediate of the [11]cytochalasin group” (J Nat Prod, 1997).

Experiment [1] is described as follows: Cell cycle arrest in mouse temperature-sensitive FT210 cells by accumulation at M phase at 2.0 uM by flow cytometry. It is filed as functional, cell-based.
Experiment [2] can be described thus: Cell cycle arrest in mouse temperature-sensitive FT210 cells by accumulation at M phase at 2.1 uM by flow cytometry. It is filed as functional, cell-based. A general note: Flow cytometry measures light scatter and fluorescence of single cells or particles in a stream.

Active and inactive are the calls of the source. The rule behind the calls is not given here.

Take `CC(=O)O[C@@H]1/C=C/[C@](C)(O)C[C@@H](C)C/C=C/[C@H]2C=C(C)[C@@H](C)[C@H]3[C@H](Cc4ccccc4)NC(=O)[C@]321`: the outcome in experiment [1] and in experiment [2] was Active.
In the case of `CC(=O)O[C@@H]1/C=C/[C@](C)(O)C[C@@H](C)C/C=C/[C@H]2[C@@H]3O[C@]3(C)[C@@H](C)[C@H]3[C@H](Cc4ccccc4)NC(=O)[C@@]312`, the result in experiment [1] and in experiment [2] was Active.
